Tests used:
[1] = target: T1, CARM1 (Homo sapiens, UniProt Q86X55); experiment: AlphaLISA CARM1 enzyme inhibition assay; type: biochemical; conditions: biotinylated H3 peptide 50 nM, SAM 300 nM, enzyme 0.1 nM, in duplicate
T1 sequence (Q86X55 1-608): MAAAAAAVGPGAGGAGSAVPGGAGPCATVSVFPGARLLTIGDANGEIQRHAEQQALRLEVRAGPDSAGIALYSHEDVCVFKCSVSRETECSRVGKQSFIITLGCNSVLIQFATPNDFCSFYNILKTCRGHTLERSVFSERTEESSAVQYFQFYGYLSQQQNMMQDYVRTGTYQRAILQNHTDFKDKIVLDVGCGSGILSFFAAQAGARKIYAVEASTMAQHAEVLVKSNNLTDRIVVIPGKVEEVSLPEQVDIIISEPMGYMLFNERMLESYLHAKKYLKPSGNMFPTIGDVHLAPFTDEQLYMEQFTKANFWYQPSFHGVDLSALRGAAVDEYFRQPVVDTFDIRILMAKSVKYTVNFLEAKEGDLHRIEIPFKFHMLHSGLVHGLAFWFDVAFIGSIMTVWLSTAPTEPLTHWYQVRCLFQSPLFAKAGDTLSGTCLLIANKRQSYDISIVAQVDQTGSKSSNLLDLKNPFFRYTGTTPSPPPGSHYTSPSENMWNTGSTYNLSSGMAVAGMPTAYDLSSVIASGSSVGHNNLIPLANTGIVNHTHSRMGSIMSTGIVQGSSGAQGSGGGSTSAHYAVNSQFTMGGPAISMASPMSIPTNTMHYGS
Experimental: The enzymatic inhibitory activities of compounds were measured by the AlphaLISA assay provided by Shanghai ChemPartner Co., Ltd. The compounds selected from virtual screening were transferred to the assay plate (white opaque OptiPlate-384, PerkinElmer). 5 μL of enzyme solution (final concentration was 0.1 nM) or pH 8.0 tris-based assay buffer (for Min well) was added to the assay plate and then centrifuged at 1000 rpm for 1 min. Afterwards, the assay plate was incubated for 15 min at room temperature (RT). Then 5 μL of biotinylated H3 peptide/SAM mix (final concentrations were 50 nM and 300 nM, resp.) was added to the assay plate, which was covered with TopSeal-Afilm and incubated for 1 h at RT after centrifuging at 1000 rpm for 1 min (DMSO final concentration 1%). Next, 5 μL of acceptor beads (final concentration was 10 μg/mL) was added to stop the enzymatic reaction. […] Finally, the mixtures were incubated for 30 min at RT, and the signal was read in alpha mode using EnVision readers. The IC50 values were calculated by fit inhibition rates under different concentrations into GraphPad Prism 5.0 software. […] The end point was read in alpha mode using EnVision readers, and IC50 values were calculated in GraphPad Prism 5.0 software.

[2] = target: PRMT1 (Homo sapiens, UniProt Q99873); experiment: In vitro enzyme selectivity assay, PRMT1; type: biochemical; conditions: in duplicate
Experimental: (§1) The enzymatic inhibitory activities of compounds were measured by the AlphaLISA assay provided by Shanghai ChemPartner Co., Ltd. The compounds selected from virtual screening were transferred to the assay plate (white opaque OptiPlate-384, PerkinElmer). 5 μL of enzyme solution (final concentration was 0.1 nM) or pH 8.0 tris-based assay buffer (for Min well) was added to the assay plate and then centrifuged at 1000 rpm for 1 min. Afterwards, the assay plate was incubated for 15 min at room temperature (RT). Then 5 μL of biotinylated H3 peptide/SAM mix (final concentrations were 50 nM and 300 nM, resp.) was added to the assay plate, which was covered with TopSeal-Afilm and incubated for 1 h at RT after centrifuging at 1000 rpm for 1 min (DMSO final concentration 1%). Next, 5 μL of acceptor beads (final concentration was 10 μg/mL) was added to stop the enzymatic reaction. After incubating at room temperature for 60 min, 10 μL of donor beads was added (final concentration was 10 μg/mL) in subdued light and then centrifuged at 1000 rpm for 1 min. Finally, the mixtures were incubated for 30 min at RT, and the signal was read in alpha mode using EnVision readers. The IC50 values were calculated by fit inhibition rates under different concentrations into GraphPad Prism 5.0 software. […]

[3] = target: PRMT6 (Homo sapiens, UniProt Q96LA8); experiment: In vitro enzyme selectivity assay, PRMT6; type: biochemical; conditions: in duplicate
Experimental: as §1

[4] = system: HELA (cervical cancer); experiment: Cell viability (MTT) assay, HELA; type: cell-based, human; conditions: 24 hrs, 48 hrs, 72 hrs, Figure 2
Experimental: (§2) The three cell lines, HELA, K562, and MCF7, were purchased from the American Type Culture Collection (ATCC). HELA, K562, and MCF7 were cultured in DMEM (Life Technologies) supplemented with 10% FBS. All of the cell lines were seeded into 96-well plates at an appropriate density and then treated with compounds of different concentrations or DMSO control. After 24 hrs, 48 hrs, and 72 hrs, cell viabilities were measured by the MTT assay. It has been reported that CARM1 was a potential target in many cancers; thus it is well accepted that inhibiting CARM1 could affect cancer cell proliferation. In this study, three human tumor cell lines including HELA (cervical cancer), K562 (myeloid leukemia), and MCF7 (breast cancer) were chosen to evaluate the cellular activity of the two compounds DC_C11 and DC_[…]. Sinefungin, a pan-PRMTs inhibitor which has the same scaffold as the cofactor SAM does, was evaluated for control experiment. […] In the three cell lines, DC_[…] presents better antiproliferative cellular activity, which is consistent with their inhibitory activity in vitro. Combined with the biological data in vitro, we confirmed that compounds DC_C11 and DC_[…] are cell membrane permeable, which presented promising activity both in vitro and in cellular environment.  Figure 2 Antiproliferative effect of DC_C11 and DC_[…] on several cancer cell lines. (a-c) Time-dependent and dose-dependent inhibitory effect of DC_C11 on HELA, K562, and MCF7 within 24 hrs, 48 hrs, and 72 hrs, respectively. (d-f) Time-dependent and dose-dependent inhibitory effect of DC_[…] on HELA, K562, and MCF7 within 24 hrs, 48 hrs, and 72 hrs, respectively. (g-i) Time-dependent and dose-dependent inhibitory effect of Sinefungin on HELA, K562, and MCF7 within 24 hrs, 48 hrs, and 72 hrs, respectively.

[5] = system: K562 (myeloid leukemia); experiment: Cell viability (MTT) assay, K562; type: cell-based, human; conditions: 24 hrs, 48 hrs, 72 hrs, Figure 2
Experimental: as §2

[6] = system: MCF7 (breast cancer); experiment: Cell viability (MTT) assay, MCF7; type: cell-based, human; conditions: 24 hrs, 48 hrs, 72 hrs, Figure 2
Experimental: as §2

[7] = target: PRMT5 (Homo sapiens, UniProt O14744); experiment: In vitro enzyme selectivity assay, PRMT5; type: biochemical; conditions: at a concentration of 50 μM; read-out: inhibition rate of PRMT5
Experimental: as §1

PRMT6, sequence (Q96LA8 whole entry, species assumed): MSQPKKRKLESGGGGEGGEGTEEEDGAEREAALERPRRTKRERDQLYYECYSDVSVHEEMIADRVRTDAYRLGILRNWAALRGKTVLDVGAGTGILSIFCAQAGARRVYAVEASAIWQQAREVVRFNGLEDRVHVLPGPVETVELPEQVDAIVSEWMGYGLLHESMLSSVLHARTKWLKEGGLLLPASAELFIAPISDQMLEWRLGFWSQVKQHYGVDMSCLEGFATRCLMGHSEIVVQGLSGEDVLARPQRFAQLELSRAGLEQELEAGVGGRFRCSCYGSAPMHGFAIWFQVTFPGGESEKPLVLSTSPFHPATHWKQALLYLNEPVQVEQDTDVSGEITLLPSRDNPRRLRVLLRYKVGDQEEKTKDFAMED
PRMT1, sequence (Q99873 whole entry, species assumed): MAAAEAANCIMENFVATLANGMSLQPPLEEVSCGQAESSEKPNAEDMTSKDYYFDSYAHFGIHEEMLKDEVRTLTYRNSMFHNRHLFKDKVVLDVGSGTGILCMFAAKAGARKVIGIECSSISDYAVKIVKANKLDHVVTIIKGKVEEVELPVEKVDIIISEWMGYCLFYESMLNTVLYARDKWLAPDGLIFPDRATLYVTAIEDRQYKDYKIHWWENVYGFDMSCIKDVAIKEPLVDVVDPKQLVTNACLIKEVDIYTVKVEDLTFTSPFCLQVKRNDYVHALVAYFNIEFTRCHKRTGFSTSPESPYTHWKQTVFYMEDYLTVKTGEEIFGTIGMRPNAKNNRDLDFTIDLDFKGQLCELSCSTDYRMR
PRMT5, sequence (O14744 whole entry, species assumed): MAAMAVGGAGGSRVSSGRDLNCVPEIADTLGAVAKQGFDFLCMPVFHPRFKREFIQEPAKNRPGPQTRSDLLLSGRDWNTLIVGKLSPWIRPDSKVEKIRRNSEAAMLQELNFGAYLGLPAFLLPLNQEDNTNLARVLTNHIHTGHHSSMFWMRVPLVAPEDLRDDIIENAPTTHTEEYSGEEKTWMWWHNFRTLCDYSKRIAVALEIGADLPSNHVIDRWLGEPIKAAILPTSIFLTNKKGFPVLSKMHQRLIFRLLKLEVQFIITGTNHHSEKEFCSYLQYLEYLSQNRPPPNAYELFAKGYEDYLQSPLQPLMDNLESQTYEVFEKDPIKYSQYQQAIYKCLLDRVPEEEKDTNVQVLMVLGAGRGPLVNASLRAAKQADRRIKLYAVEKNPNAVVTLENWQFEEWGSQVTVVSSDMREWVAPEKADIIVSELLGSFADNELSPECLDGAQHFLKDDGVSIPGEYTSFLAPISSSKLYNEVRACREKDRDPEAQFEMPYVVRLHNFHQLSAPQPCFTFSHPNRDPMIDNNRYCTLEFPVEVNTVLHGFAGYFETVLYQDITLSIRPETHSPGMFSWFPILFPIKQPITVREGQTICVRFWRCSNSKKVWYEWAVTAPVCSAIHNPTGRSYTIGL
PRMT5, sequence (Q9BQA1 whole entry partner, species assumed): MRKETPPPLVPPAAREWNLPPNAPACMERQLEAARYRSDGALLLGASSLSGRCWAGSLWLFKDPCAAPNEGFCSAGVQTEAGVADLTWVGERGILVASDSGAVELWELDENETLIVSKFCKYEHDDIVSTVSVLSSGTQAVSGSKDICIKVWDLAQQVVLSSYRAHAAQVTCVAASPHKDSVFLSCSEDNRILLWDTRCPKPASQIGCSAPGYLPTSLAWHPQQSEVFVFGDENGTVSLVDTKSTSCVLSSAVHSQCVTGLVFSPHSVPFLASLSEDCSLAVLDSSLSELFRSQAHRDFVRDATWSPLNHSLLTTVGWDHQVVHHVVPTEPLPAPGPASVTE

Compound | IC50 [1] [µM] | IC50 [2] [µM] | IC50 [3] [µM] | Antiproliferative effect on HELA [4] | Antiproliferative effect on K562 [5] | Antiproliferative effect on MCF7 [6] | inhibition at 50 µM [7] [%]
O=C(c1ccccc1)c1c2c(cc3sc4ccccc4[n+]13)-c1cccc3cccc-2c13 [DC_C11] | 15 | 36 | 41 | inhibit proliferation of cancer cells in a time-dependent and dose-dependent manner | inhibit proliferation of cancer cells in a time-dependent and dose-dependent manner | inhibit proliferation of cancer cells in a time-dependent and dose-dependent manner | 
CCOC(=O)c1c2c3ccccc3c3ccccc3c2cc2[n+]1CCc1ccccc1-2 [DC_C66] | 1.8 | 21 | 47 | inhibit proliferation of cancer cells in a time-dependent and dose-dependent manner | inhibit proliferation of cancer cells in a time-dependent and dose-dependent manner | inhibit proliferation of cancer cells in a time-dependent and dose-dependent manner | < 50
Nc1ncnc2c1ncn2[C@@H]1O[C@H](C[C@@H](N)CC[C@H](N)C(=O)O)[C@@H](O)[C@H]1O [Sinefungin, reference compound] |  |  |  | weaker inhibitory activity | weaker inhibitory activity | weaker inhibitory activity | 
